Like-named read-outs stand apart in the source and are kept apart here.
Tests used:
GBA1 = GBA1 (Homo sapiens (Human), UniProt P04062); experiment: Kinetic constants of GBA1 inhibition (Table 2); format: biochemical; details: Table 2 kinetic constants
GBA [1] = target: T1, GBA (Homo sapiens (Human), UniProt P04062, R534H); experiment: Continuous substrate release assay for inhibition constants; format: biochemical; details: for Ki: equilibrium constant for initial binding; for Ki / ki: reported with s.e.m.; for ki: rate constant; for ki/Ki: relative rate constant
Description: Previously discontinuous methods have been used to determine the inhibition constants of glycosidase inhibitors. […] Therefore the inhibition constants have been determined in a continuous substrate assay which was first described in 1982 (2) and has recently been reappraised in 2010 (3). In these experiments, inhibition of the enzyme and hydrolysis of the substrate proceed concurrently making the situation slightly more complex than the discontinuous (FIG. 39 Scheme 2). The time-dependent interaction of inhibitor (I) with free β-glucosidase (E) was considered to occur in separate stages (A). A rapid reversible interaction is followed by a slower, irreversible reaction that transforms the reversible enzyme-inhibitor complex (EI) into an irreversible enzyme-inhibitor complex (EI*) (FIG. 39 Scheme 2). Progress curves were obtained (FIG. 28a) and apparent rate constant k′ was plotted versus the concentration (FIG. 28b) to obtain estimates of the Ki (equilibrium constant) and ki (rate constant)
To 100 μL McIlvaine buffer (pH 5.2, 0.2% sodium taurocholate, 0.1% Triton X-100) containing 4-methylumbelliferyl β-D-glucoside (7.5 mM) in Greiner flat bottom black 96-well plate was added 5 μL inhibitor (25× stock in DMSO). The resulting mixture was preincubated at 37° C. for 15 min in a TECAN GENios microplate reader. GBA (2 ng) in McIlvaine buffer (20 μL pH 5.2, 0.2% sodium taurocholate, 0.1% Triton X-100) was preheated to 37° C. for 15 min before being added to the substrate mix. The resulting solution was mixed by horizontal shaking for 15 sec, after which release 4-methylumbelliferyl measured with a TECAN GENios platereader (λex 340 nm and λem 465 nm) for the indicated time. Bleaching of the fluorophore, which was observed during the assay, was corrected by subtracting blanks (100 μL substrate buffer, 5 μL DMSO, 20 μL McIlvaine buffer). Apparent rate constants k′ were obtained by fitting the resulting progress curves (FIG. 28A) to the one-phase association equitation y (y max y0)(1−exp^−kt)yo+in GraphPad Prism version 5.00 for Windows, GraphPad Software, San Diego Calif. USA, www.graphpad.com. Measurements were performed in nine fold and plotting of the obtained k′ values versus [^I0] yielded rectangular hyperbolar functions (FIG. 28B).
[formula] estimates of Ki app and ki were obtained. The Ki value in the absence of substrate was obtained by correcting the Ki app with […]

GBA [2] = target: T1, GBA; experiment: GBA enzyme activity assay with 4-methylumbelliferyl β-D-glucopyranoside, inhibitor preincubated 30 min (apparent IC50); format: biochemical
lactase = experiment: Lactose competition of MDW933 labeling in intestinal homogenates; format: biochemical, mouse; details: lactose 250 mM
Description: FIG. 32 Indenfication of the 160 kDa protein. […] (b) Quantification of the observed fluorescent signal. Data represent mean values±s.d.

GBA [3] = target: T2, GBA (Homo sapiens (Human), UniProt P04062); experiment: Fluorescence microscopy of probe-labeled fibroblasts; format: cell-based; details: 5 nM, 2 h
Protocol: We studied in situ labeling of GBA in cells using fluorescence-activated cell sorting (FACS) analysis. We first preincubated cells in the absence or presence of CBE and subsequently incubated the cells with a subsaturating or an excess amount of the green fluorescent probe 5. […] These positive results prompted us to analyze labeling of the cells with fluorescence microscopy (FIG. 25c-f). […] We also detected GBA protein by indirect immunofluorescence using the specific anti-GBA monoclonal antibody 8E4 (ref. 29). Using multispectral image analysis, we could specifically distinguish the respective fluorescent emission spectra (FIG. 25d-e) from autofluorescent background (FIG. 25c). […] As probes with a hydrophobic BODIPY moiety might nonspecifically be retained in membranes, in particular the plasma membrane, we studied this possibility more closely. […] These control probes did inhibit GBA in vitro with IC^50 values of 41 and 95 μM, respectively. However, inhibition is presumably reversible.
Fibroblasts were cultured on glass slides. […] Next, cells were washed, fixed with 3% (v/v) paraformaldehyde in PBS for 15 min, washed and incubated first with 0.05% (w/v) saponine for 15 min, next with 0.1 mM NH4Cl in PBS for 10 min and then with 3% (w/v) bovine serum albumin in PBS for 1 h. Next, the slides were incubated with anti-GBA monoclonal antibody 8E4 (1:500). […]

GBA [4] = target: T1, GBA; experiment: Competition assay for labeling of recombinant GBA with MDW933; format: biochemical; details: 2 mM, 30 min
N370S GBA = N370S GBA (Homo sapiens (Human), UniProt P04062, N370S); experiment: Chaperone experiment using isofagomine in N370S GBA fibroblasts; format: cell-based; details: 7 d, 0, 10, 30 and 300 nM
GBA [5] = target: T1, GBA; experiment: Reversibility of isofagomine competition for active site labeling; format: biochemical; details: pH 5.2, wash before labeling with MDW933 (10 nM for 15 min)
GBA [6] = target: T2, GBA; experiment: Time-lapse microscopy of GBA labeling in intact fibroblasts; format: cell-based; details: 5 nM
Protocol: (§1) We next studied the labeling of GBA by MDW941 in intact fibroblasts using time-lapse microscopy. […] As a control, matched mice received the buffer solution intravenously. […] In addition to GBA, MDW933 clearly labeled other proteins that occur in the intestine in the mouse.
(§2) With the 37° C., 10% CO2 incubator enclosing the microscope, cells were imaged every 5 min for 2 hours simultaneously using fluorescence microscopy with an N2.1 filter block and phase-contrast brightfield microscopy (Leica IR-BE with Z-motor drive and a Plan APO 63×/1.40 oil immersion objective (Leica Microsystems, Rijswijk, The Netherlands), equipped with a KX85 camera, Apogee Instruments, Auburn, Calif., USA). […] An auto-focus routine was applied during acquisition. Images were analyzed using TimeLapseAVI 5.1.4 software (©Ron Hoebe, CMO, AMC, University of Amsterdam, The Netherlands; R.A.Hoebe@amc.uva.nl).

fibroblasts = experiment: Toxicity monitoring by live-cell imaging of fibroblasts; format: cell-based, human; details: after 100 h of exposure
Protocol: as §1
as §2, with “cells were imaged every 5 min for 2 hours simultaneously using fluorescence” left out

[7] = rec. GBA1, 30 min, 37 C., pH 5.2 + Tch, Tr, read-out: Apparent IC50 (nM) rec. GBA1: 30 min, 37 C., pH 5.2 + Tch, Tr
[8] = recombinant GBA, in vitro, read-out: apparent half-maximal inhibitory concentration (IC50)

GBA1, sequence (P04062 40-536): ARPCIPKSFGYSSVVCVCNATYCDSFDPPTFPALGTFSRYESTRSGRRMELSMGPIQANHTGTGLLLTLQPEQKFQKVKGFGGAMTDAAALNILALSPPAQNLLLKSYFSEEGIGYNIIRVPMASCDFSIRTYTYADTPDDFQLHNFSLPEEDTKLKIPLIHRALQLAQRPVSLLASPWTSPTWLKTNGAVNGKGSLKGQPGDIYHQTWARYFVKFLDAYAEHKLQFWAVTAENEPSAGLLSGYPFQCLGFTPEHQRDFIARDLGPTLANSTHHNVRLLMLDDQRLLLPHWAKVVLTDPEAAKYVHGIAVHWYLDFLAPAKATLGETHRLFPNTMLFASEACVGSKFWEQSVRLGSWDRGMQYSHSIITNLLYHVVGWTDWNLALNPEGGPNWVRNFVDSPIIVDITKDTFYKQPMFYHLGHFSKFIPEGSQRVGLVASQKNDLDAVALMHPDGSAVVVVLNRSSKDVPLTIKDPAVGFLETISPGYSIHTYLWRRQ
T1 sequence (P04062 40-536 R534H): as the sequence (P04062 40-536) above, with R495H counted along it
T2 sequence (P04062 40-536): as the sequence (P04062 40-536) above
N370S GBA, sequence (P04062 40-536 N409S): as the sequence (P04062 40-536) above, with N370S counted along it

Ki (GBA1) [µM] | Ki (GBA [1]) [µM] | ki (GBA [1]) [min⁻¹] | ki/Ki (GBA [1]) [M⁻¹ s⁻¹] | IC50 (GBA [2]; [8]) [nM] | SMILES | further results
– | – | – | – | – | OC[C@H]1O[C@@H](O[C@H]2[C@H](O)[C@@H](O)C(O)O[C@@H]2CO)[C@H](O)[C@@H](O)[C@H]1O (stereo partly shown) [lactose] | reduction of labeling of the high-molecular weight protein in the intestinal fraction (lactase): < 90%
– | – | – | – | 95000 | COc1ccc(C2=[N+]3C(=C(CCCCc4cn(C[C@H]5C=C[C@H](O)[C@@H](O)[C@@H]5O)nn4)c4ccc(-c5ccc(OC)cc5)n4[B-]3(F)F)C=C2)cc1 [MDW1065] | labeling of fibroblasts (GBA [3]): hardly any detectable labeling
– | – | – | – | 41000 | CC1=CC(C)=[N+]2C1=C(CCCCc1cn(C[C@H]3C=C[C@H](O)[C@@H](O)[C@@H]3O)nn1)c1c(C)cc(C)n1[B-]2(F)F [MDW1064] | –
– | 0.152 ± 0.026 | 0.078 ± 0.010 | 8570 | 150 ± 9 | OC[C@@H]1[C@@H](O)[C@H](O)[C@@H](O)[C@@H]2O[C@H]12 [Cyclophellitol 3, cyclophellitol, reference compound] | –
7.73 | 53 ± 10.8 | 0.217 ± 0.026 | 67 | – | O[C@H]1[C@H](O)[C@@H](O)[C@@H]2O[C@@H]2[C@@H]1O [CBE, Conduritol B-epoxide, reference compound] | ki (GBA1): 0.0244 min⁻¹; effect of preincubation on labeling with MDW933 (GBA [4]): blocked labeling completely; IC50 (GBA [2]; [7]): 12000 nM
– | – | – | – | – | OC[C@H]1CNC[C@@H](O)[C@@H]1O [isofagomine] | GBA enzyme activity in cell homogenates (N370S GBA): modest isofagomine dose-dependent increase; fluorescent MDW941-labeled GBA quantified on gel (N370S GBA): modest dose-dependent increase; reversibility of competition for the active site (GBA [5]): fully reversible
– | – | – | – | – | Cc1cc(=O)oc2cc(O[C@@H]3O[C@H](CO)[C@@H](O)[C@H](O)[C@H]3O)ccc12 [4-methylumbelliferyl β-D-glucoside, reference compound] | Km (GBA [1]): 1200 µM
0.00156 | 0.008 ± 0.003 | 0.208 ± 0.063 | 418300 | – | COc1ccc(C2=[N+]3C(=C(CCCCc4cn(C[C@@H]5[C@@H](O)[C@H](O)[C@@H](O)[C@@H]6O[C@H]56)nn4)c4ccc(-c5ccc(OC)cc5)n4[B-]3(F)F)C=C2)cc1 [MDW941] | ki (GBA1): 0.0236 min⁻¹; IC50 (GBA [2]; FIG. 16, ABPs designed for GBA1, read-out: IC50): 2 nM; IC50 (GBA [2]; recombinant GBA, read-out: apparent half-maximal inhibitory concentration (IC50)): 1.94 ± 0.08 nM; time to maximum labeling (GBA [6]): ≤ 15 min; signs of apoptosis or toxicity (fibroblasts): did not show any signs of apoptosis or toxicity

SMILES | Ki (GBA1) [µM] | Ki (GBA [1]) [µM] | ki (GBA [1]) [min⁻¹] | ki/Ki (GBA [1]) [M⁻¹ s⁻¹] | IC50 (GBA [2]; [8]) [nM] | further results
[N-]=[N+]=NC[C@@H]1[C@@H](O)[C@H](O)[C@@H](O)[C@@H]2O[C@H]12 [KY170, (2S,3R,4S,5S)-8-azido-8-deoxy-cyclophellitol] | 0.083 | 0.044 ± 0.007 | 0.035 ± 0.003 | 13200 | 120 ± 4 | IC50 (GBA [2]; [7]): 150 ± 30 nM

Reference: patent publication US9056847B2, “Activity based probes (ABPs) interacting with glycosidases” (ACADEMISCH MEDISCH CENTRUM BIJ UNIVERSITEIT VAN AMSTERDAM, priority 2010, dated 2015)
